Experiments:
[1] = system: mice; test: synergism of acute toxicity of Dimetilan, GS 13005, Secobarbital and Methadone (intraperitoneal); format: in vivo, Swiss albino white male mice; settings: for number of mice dead: 48 hours, of eight mice
Summary of the method: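 Male Swiss albino mice (5–6 weeks, 23–27 g), eight per dose; synergist in corn oil given i.p. 1 h before i.p. insecticide or drug (drugs in distilled water). Lethality recorded over at least 6 h; controls received corn oil plus agent alone.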

[2] = system: German male cockroaches (Blatella Germanicus); test: topical application to thorax, 24 hour mortality of German male cockroaches; format: in vivo, German cockroach (Blatella Germanicus)
Protocol: The synergistic effect with mobam of synergist compounds I-B, II-H, II-K and IV-C is further illustrated by the 24 hour mortality data of German male cockroaches (Blatella Germanicus) shown in Table XXXX. The synergists and insecticide were diluted in acetone and applied in small droplets to the thorax of the insect. These doses of synergist alone gave zero percent insect mortality.
The synergistic effect with GS 13005 of compounds I-B, II-H, II-K, II-P, II-Q, II-R and IV-C is illustrated by the 24 hour mortality of German male cockroaches shown in Table XXXXI. These doses of synergist alone caused zero percent insect mortality.

[3] = system: mice; test: extension of Secobarbital sleeping time by synergists; format: in vivo, Swiss albino white male mice; settings: Secobarbital 37 mg/K; for Relative Sleeping Time: treated/control
Summary of the method: (§1)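 Swiss albino male mice (~38 days, 25-30 g) given synergist at 74.0 or 110.0 mg/kg in corn oil 1 h before Secobarbital 37.0 mg/kg or Noludar 110.0 mg/kg in water. Sleeping time measured from drug dosing to righting-reflex recovery; relative sleeping time = treated ÷ drug-only control.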

[4] = system: mice; test: extension of Noludar sleeping time by synergists; format: in vivo, Swiss albino white male mice; settings: Noludar 110 mg/K, synergist 110 mg/K; for Relative Sleeping Time: treated/control
Summary of the method: as §1

[5] = system: Wilson strain house flies; format: in vivo, house fly (susceptible Wilson strain); settings: for Contact Synergistic Ratio, Carbaryl (LC50 insecticide alone / LC50 with synergist): in vivo; for Contact Synergistic Ratio, Pyrolan (LC50 insecticide alone / LC50 with synergist): synergist to insecticide 5:1 by weight, 24 h
Protocol: The required solutions of the insecticide and of the synergist compound were prepared in acetone at a concentration of one milligram per milliliter. One-pint wide mouth glass jars were coated wiith the appropriate insecticide-synergist combination by rolling the jars containing aliquots of the appropriate solutions diluted to three milliliters with acetone to deposit, by evaporation, a film of the test materials. The flies were transferred under carbon dioxide anesthesia and held in the jar at room temperature. Perforated aluminum foil was used to cover the jars and to hold cotton saturated with 10% sugar solution. Counts were made at intervals, but the recorded mortality was based on 24-hour kill, rather than knockdown. All prostrate nonmoving flies were considered dead. A determination was then made of the contact synergistic ratio [SR], which is the ratio of the LC50 of insecticide alone to the LC50 of the insecticide when applied together with the synergist. The LC50 of the insecticide was estimated from a log-probit plot of percent kill versus dosage. […] The LC50 of the combination of insecticide and synergist was determined at a synergist to insecticide parts by weight ratio of five to one.

[6] = system: mice; test: acute toxicity of Dimetilan alone and of synergist alone (intraperitoneal); format: in vivo, Swiss albino white male mice; settings: synergist alone 1000 mg/kg ip, 72 hours, of eight mice
Protocol: To determine the acute toxicity of dimetilan alone, eight dosage levels of Dimetilan, ranging from 4 to 32 mg per kg wer applied to eight, Swiss, albino, white, male mice per dosage level. The mice weighed approximately 23 to 27 grams and were five to size weeks old. The Dimetilan was administered intraperitoneally in 0.1 ml of corn oil one hour after the administration of the same dose of corn oil alone.
To determine the acute toxicity of the synergist alone, various synergists were administered intraperitoneally at a dose of 1000 mg/kg to each of a group of eight mice. The number of animals dead at the end of 72 hours is reported in the left hand column of Table XXXXVI.

[7] = Dimetilan 8 mg/kg + synergist 80 mg/kg ip
[8] = Dimetilan 8 mg/kg + synergist 240 mg/kg ip
[9] = synergist alone at doses of Table XXXX
[10] = synergist alone at doses of Table XXXXI
[11] = GS 13005 71 mg/kg + synergist 213 mg/kg
[12] = Methadone 32 mg/kg + synergist 215 mg/kg
[13] = Secobarbital 90 mg/kg + synergist 215 mg/kg

Compound	number of mice dead [1, 7]	number of mice dead [1, 8]	insect mortality, synergist alone [2, 9]	insect mortality, synergist alone [2, 10]	Mean Sleeping Time ([3]; synergist 74 mg/K) [min]	Relative Sleeping Time ([3]; synergist 74 mg/K)	Mean Sleeping Time ([3]; synergist 110 mg/K) [min]	Relative Sleeping Time ([3]; synergist 110 mg/K)	Mean Sleeping Time [4] [min]	Relative Sleeping Time [4]	Contact Synergistic Ratio, Carbaryl (LC50 insecticide alone / LC50 with synergist) [5]	Contact Synergistic Ratio, Pyrolan (LC50 insecticide alone / LC50 with synergist) [5]	mice lethality (number dead) [1, 11]	mice lethality (number dead) [1, 12]	mice lethality (number dead) [1, 13]	number of mice dead [6]
C#CCON=Cc1cccc([N+](=O)[O-])c1 [I-B]	1	6	zero	zero	54	1.5	106	1.7	70	2.4	270	35				
C#CCOCc1c(Cl)cccc1Cl [II-H]	0	6	zero	zero	44	1.4	51	2.1	68	2.2	300	40	7	4	0	0
C#CCOCc1ccccc1[N+](=O)[O-] [II-P, 2-nitrobenzyl 2-propynyl ether]		0		zero			46	1.0	44	1.5			6	0	0	2
C#CCOCc1ccc([N+](=O)[O-])cc1 [II-Q, 4-nitrobenzyl 2-propynyl ether]		1		zero	30	1.1	73	1.6	41	2.1			6			7

Source: patent US4020111A, “Propynyloxy alkyl arene insecticides” (priority 1975, dated 1977)
